Legend:
[1] = molecular target: T1, Estrogen receptor (Homo sapiens) (UniProt P03372); experiment: Inhibition of fluorescence-labeled 17beta-estradiol binding to ERalpha receptor at 5 mM after 2 hrs by fluorometric analysis
T1 sequence (whole entry): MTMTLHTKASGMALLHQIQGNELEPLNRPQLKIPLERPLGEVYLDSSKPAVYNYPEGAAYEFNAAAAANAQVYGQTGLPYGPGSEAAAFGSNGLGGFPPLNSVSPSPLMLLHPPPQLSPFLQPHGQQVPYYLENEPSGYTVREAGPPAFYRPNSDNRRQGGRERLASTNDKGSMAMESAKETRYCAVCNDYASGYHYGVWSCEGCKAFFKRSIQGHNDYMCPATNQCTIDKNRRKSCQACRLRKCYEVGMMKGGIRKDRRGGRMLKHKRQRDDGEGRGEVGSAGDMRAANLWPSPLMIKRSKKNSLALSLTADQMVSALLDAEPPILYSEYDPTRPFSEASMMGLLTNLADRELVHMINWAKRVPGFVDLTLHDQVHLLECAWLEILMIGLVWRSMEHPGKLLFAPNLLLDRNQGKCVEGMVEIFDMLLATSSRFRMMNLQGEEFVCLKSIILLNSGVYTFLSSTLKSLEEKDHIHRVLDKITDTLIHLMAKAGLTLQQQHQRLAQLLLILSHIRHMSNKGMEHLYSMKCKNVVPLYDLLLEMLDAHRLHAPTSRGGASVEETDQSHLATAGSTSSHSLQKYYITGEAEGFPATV

Estrogen receptor = molecular target: T2, Estrogen receptor (Homo sapiens, UniProt P03372)
T2 sequence (P03372 whole entry): T1 sequence (whole entry)
Description: Inhibition of fluorescence-labeled 17beta-estradiol binding to ERalpha receptor after 2 hrs by fluorometric analysis

SMILES: C=C1CC[C@@H](O)[C@]2(C)CC[C@@](O)(C(C)C)[C@H](O)[C@@H]12
- inhibition [1]: 67.3%
- IC50 (Estrogen receptor): 2.8 mM

SMILES: COc1ccc2c(c1)OC[C@]1(O)c3cc4c(cc3O[C@H]21)OCO4
- inhibition [1]: 36.2%
- IC50 (Estrogen receptor): > 5 mM

SMILES: COc1cc(O)c(/C=C\C(C)(C)O)c(O)c1C(=O)/C=C/c1ccc(O)cc1 [CANDIDACHALCONE]
- inhibition [1]: 95.1%
- IC50 (Estrogen receptor): 0.08 mM

SMILES: COc1cc(O)c(/C=C\C(C)(C)O)c2c1C(=O)C[C@@H](c1ccccc1)O2 [TEPHROCANDIDIN A]
- inhibition [1]: 70.1%
- IC50 (Estrogen receptor): 3.5 mM

SMILES: COc1cc(O)c(/C=C\C(C)(C)O)c2c1C(=O)CC(c1ccc(O)cc1)O2 (stereo not given) [TEPHROCANDIDIN B]
- inhibition [1]: 86.2%
- IC50 (Estrogen receptor): 1 mM

Source: ChEMBL document CHEMBL1781994, “Estrogenic activity of chemical constituents from Tephrosia candida” (J Nat Prod, 2011)
